From patent US20240165120A1, “TREATING CANCER IN PATIENT HAVING CO-OCCURRING GENETIC ALTERATION IN FGFR2 AND A CANCER DRIVER GENE” (TAIHO PHARMACEUTICAL CO., LTD., priority 2021, published 2024)

Tests used:
[1] = Crystal form oral absorbability; conditions: crystal forms defined by XRPD peaks
Crystal form stability = conditions: crystal forms defined by XRPD peaks
advanced iCCA = conditions: 1st line; patients with advanced iCCA; cited from earlier work

## C=CC(=O)N1CC[C@H](n2nc(C#Cc3cc(OC)cc(OC)c3)c3c(N)ncnc32)C1 [Compound (1), (S)-1-[(3)-[4-amino-3-[(3,5-dimethoxyphenyl)ethynyl]-1H-pyrazolo[3,4-d]pyrimidin-1-yl]-1-pyrrolidinyl]-2-propen-1-one]
[1]
  oral absorbability: excellent oral absorbability
Crystal form stability
  stability: good stability

## Gemcitabine-cisplatin
Advanced iCCA
  overall survival: 1 year
